According to paper PMC4863226 (Molecular imaging, 2015):
Where a SMILES comes first, the peptide text is derived from it. Bridges are numbered along the chain shown (N, C = ends). The star is where a group is joined. DOTA = O=C(O)CN1CCN(CC(=O)O)CCN(CC(=O)*)CCN(CC(=O)O)CC1; NOTA = O=C(O)CN1CCN(CC(=O)O)CCN(CC(=O)*)CC1; X1 = O=[N+]([O-])c1cc([N+](=O)[O-])c(*)cc1F; PEG4 = NCCOCCOCCOCCOCCC(=O)O

Assays:
in vivo = settings: female, athymic Nu/Nu, mouse, 3.7 MBq, total radioactivity
[1] = tested on: HCT-116 tumor bearing mice; test: Biodistribution; settings: for Bone uptake / Brain uptake / Fat uptake / Heart uptake / Kidney uptake / L lg int (lower large intestine) uptake / Liver uptake / Lung uptake / Muscle uptake / Sm int (small intestine) uptake / Spleen uptake / Stomach uptake / U lg int (upper large intestine) uptake: HCT-116 tumor bearing mice; for Bone uptake / Brain uptake / Fat uptake / Heart uptake / Kidney uptake / L lg int (lower large intestine) uptake / Liver uptake / Lung uptake / Muscle uptake / Sm int (small intestine) uptake / Spleen uptake / Stomach uptake / U lg int (upper large intestine) uptake / Tumor uptake: gamma counter; for Bone uptake / Brain uptake / Fat uptake / Heart uptake / Kidney uptake / L lg int (lower large intestine) uptake / Liver uptake / Lung uptake / Muscle uptake / Sm int (small intestine) uptake / Spleen uptake / Stomach uptake / U lg int (upper large intestine) uptake / Tumor uptake / Tumor-to-blood ratio: mean ± SD; for Tumor uptake: HCT-116 tumor xenograft; for Tumor uptake / Tumor-to-blood ratio: mice; for Tumor-to-blood ratio: HCT-116 tumor xenografts
[2] = Sm int (small intestine) uptake

CC[C@H](C)[C@@H]1NC(=O)[C@H](CC(=O)O)NC(=O)[C@@H](NC(=O)[C@H](CCC(=O)O)NC(=O)[C@H](CC(N)=O)NC(=O)CNC(=O)CNC(=O)CCOCCOCCOCCOCCNC(=O)CN2CCN(CC(=O)O)CCN(CC(=O)O)CC2)CSSC[C@@H](C(=O)N[C@@H](Cc2ccccc2)C(=O)N[C@@H](CCC(=O)O)C(=O)N[C@@H](CCCNC(=N)N)C(=O)N[C@@H](CCCCNc2cc(F)c([N+](=O)[O-])cc2[N+](=O)[O-])C(N)=O)NC(=O)[C@H](CCC(=O)O)NC(=O)[C@H](Cc2c[nH]c3ccccc23)NC(=O)[C@H](CCC(=O)O)NC(=O)[C@H](Cc2c[nH]c3ccccc23)NC(=O)[C@H](CCSC)NC(=O)[C@H](CCCNC(=N)N)NC(=O)[C@H](C)NC1=O [^55Co-NO2A-L19K-FDNB] ({NOTA-PEG4}-GGNECDIARMWEWECFERK(X1)-NH2; disulfide 5-15)
tissue uptake at 24 h (in vivo; Bone uptake): 0.28 ± 0.04 %ID/g
tissue uptake at 48 h (in vivo; Bone uptake): 0.14 ± 0.02 %ID/g
tissue uptake at 24 h (in vivo; Fat uptake): 0.8 ± 0.4 %ID/g
tissue uptake at 48 h (in vivo; Fat uptake): 0.3 ± 0.1 %ID/g
tissue uptake at 24 h (in vivo; Liver uptake): 1 ± 0.1 %ID/g
tissue uptake at 48 h (in vivo; Liver uptake): 0.44 ± 0.03 %ID/g
tissue uptake at 24 h (in vivo; Lung uptake): 0.9 ± 0.1 %ID/g
tissue uptake at 48 h (in vivo; Lung uptake): 0.46 ± 0.06 %ID/g
tissue uptake at 24 h (in vivo; [2]): 0.26 ± 0.01 %ID/g
tissue uptake at 48 h (in vivo; [2]): 0.14 ± 0.04 %ID/g
tissue uptake at 24 h (in vivo; Tumor uptake): 0.9 ± 0.1 %ID/g
tissue uptake at 48 h (in vivo; Tumor uptake): 0.49 ± 0.09 %ID/g

[Cl][55Co][Cl] [^55CoCl2]
Bone uptake ([1]; 2 hr p.i.): 1.3 ± 0.2 %ID/g
Brain uptake ([1]; 2 hr p.i.): 0.31 ± 0.02 %ID/g
Fat uptake ([1]; 2 hr p.i.): 1.5 ± 0.9 %ID/g
Heart uptake ([1]; 2 hr p.i.): 4.8 ± 0.4 %ID/g
Kidney uptake ([1]; 2 hr p.i.): 10.5 ± 1.4 %ID/g
L lg int (lower large intestine) uptake ([1]; 2 hr p.i.): 1.9 ± 1.0 %ID/g
Liver uptake ([1]; 2 hr p.i.): 15.7 ± 0.4 %ID/g
Lung uptake ([1]; 2 hr p.i.): 4.0 ± 0.3 %ID/g
Muscle uptake ([1]; 2 hr p.i.): 0.6 ± 0.1 %ID/g
Sm int (small intestine) uptake ([1]; 2 hr p.i.): 3.6 ± 0.6 %ID/g
Spleen uptake ([1]; 2 hr p.i.): 1.9 ± 0.4 %ID/g
Stomach uptake ([1]; 2 hr p.i.): 1.1 ± 0.1 %ID/g
U lg int (upper large intestine) uptake ([1]; 2 hr p.i.): 4.3 ± 0.8 %ID/g
Tumor uptake ([1]; 2 hr p.i.): 2.8 ± 0.6 %ID/g
Tumor-to-blood ratio ([1]; 2 hrs p.i.): 0.6 ± 0.1
Bone uptake ([1]; 24 hr p.i., n=3): 0.8 ± 0.1 %ID/g
Brain uptake ([1]; 24 hr p.i., n=3): 0.17 ± 0.03 %ID/g
Fat uptake ([1]; 24 hr p.i., n=3): 0.7 ± 0.4 %ID/g
Heart uptake ([1]; 24 hr p.i., n=3): 2.8 ± 0.7 %ID/g
Kidney uptake ([1]; 24 hr p.i., n=3): 4.4 ± 0.4 %ID/g
L lg int (lower large intestine) uptake ([1]; 24 hr p.i., n=3): 2.2 ± 0.3 %ID/g
Liver uptake ([1]; 24 hr p.i., n=3): 6.2 ± 0.8 %ID/g
Lung uptake ([1]; 24 hr p.i., n=3): 1.9 ± 0.1 %ID/g
Muscle uptake ([1]; 24 hr p.i., n=3): 0.37 ± 0.08 %ID/g
Sm int (small intestine) uptake ([1]; 24 hr p.i., n=3): 1.1 ± 0.2 %ID/g
Spleen uptake ([1]; 24 hr p.i., n=3): 0.82 ± 0.05 %ID/g
Stomach uptake ([1]; 24 hr p.i., n=3): 1.0 ± 0.2 %ID/g
U lg int (upper large intestine) uptake ([1]; 24 hr p.i., n=3): 1.5 ± 0.1 %ID/g
Tumor uptake ([1]; 24 hr p.i., n=3): 1.6 ± 0.2 %ID/g
Bone uptake ([1]; 48 hr p.i., n=3): 0.5 ± 0.1 %ID/g
Brain uptake ([1]; 48 hr p.i., n=3): 0.11 ± 0.01 %ID/g
Fat uptake ([1]; 48 hr p.i., n=3): 0.23 ± 0.05 %ID/g
Heart uptake ([1]; 48 hr p.i., n=3): 1.4 ± 0.2 %ID/g
Kidney uptake ([1]; 48 hr p.i., n=3): 1.9 ± 0.2 %ID/g
L lg int (lower large intestine) uptake ([1]; 48 hr p.i., n=3): 1.2 ± 0.2 %ID/g
Liver uptake ([1]; 48 hr p.i., n=3): 2.7 ± 0.7 %ID/g
Lung uptake ([1]; 48 hr p.i., n=3): 0.98 ± 0.09 %ID/g
Muscle uptake ([1]; 48 hr p.i., n=3): 0.17 ± 0.03 %ID/g
Sm int (small intestine) uptake ([1]; 48 hr p.i., n=3): 0.50 ± 0.04 %ID/g
Spleen uptake ([1]; 48 hr p.i., n=3): 0.46 ± 0.04 %ID/g
Stomach uptake ([1]; 48 hr p.i., n=3): 0.5 ± 0.1 %ID/g
U lg int (upper large intestine) uptake ([1]; 48 hr p.i., n=3): 0.7 ± 0.1 %ID/g
Tumor uptake ([1]; 48 hr p.i., n=3): 0.86 ± 0.08 %ID/g
Tumor-to-blood ratio ([1]; 48 hrs p.i., P=0.006 vs 2 hrs): 1.9 ± 0.4
Consecutive decrease in liver and kidney uptake ([1]; at 24 and 48 hrs p.i. after high uptake at 2 hrs p.i.): about 2 fold
Increase of tumor-to-blood ratio ([1]; from 2 to 48 hrs p.i.): 3 fold

CC[C@H](C)[C@@H]1NC(=O)[C@H](CC(=O)O)NC(=O)[C@@H](NC(=O)[C@H](CCC(=O)O)NC(=O)[C@H](CC(N)=O)NC(=O)CNC(=O)CNC(=O)CCOCCOCCOCCOCCNC(=O)CN2CCN(CC(=O)O)CCN(CC(=O)O)CCN(CC(=O)O)CC2)CSSC[C@@H](C(=O)N[C@@H](Cc2ccccc2)C(=O)N[C@@H](CCC(=O)O)C(=O)N[C@@H](CCCNC(=N)N)C(=O)N[C@@H](CCCCNc2cc(F)c([N+](=O)[O-])cc2[N+](=O)[O-])C(N)=O)NC(=O)[C@H](CCC(=O)O)NC(=O)[C@H](Cc2c[nH]c3ccccc23)NC(=O)[C@H](CCC(=O)O)NC(=O)[C@H](Cc2c[nH]c3ccccc23)NC(=O)[C@H](CCSC)NC(=O)[C@H](CCCNC(=N)N)NC(=O)[C@H](C)NC1=O [^55Co-DO3A-L19K-FDNB] ({DOTA-PEG4}-GGNECDIARMWEWECFERK(X1)-NH2; disulfide 5-15)
tissue uptake at 24 h (in vivo; Bone uptake): 0.3 ± 0.04 %ID/g
tissue uptake at 48 h (in vivo; Bone uptake): 0.26 ± 0.05 %ID/g
tissue uptake at 24 h (in vivo; Fat uptake): 0.4 ± 0.1 %ID/g
tissue uptake at 48 h (in vivo; Fat uptake): 0.3 ± 0.03 %ID/g
tissue uptake at 24 h (in vivo; Liver uptake): 1.1 ± 0.2 %ID/g
tissue uptake at 48 h (in vivo; Liver uptake): 0.7 ± 0.1 %ID/g
tissue uptake at 24 h (in vivo; Lung uptake): 0.8 ± 0.1 %ID/g
tissue uptake at 48 h (in vivo; Lung uptake): 0.56 ± 0.03 %ID/g
tissue uptake at 24 h (in vivo; [2]): 0.31 ± 0.04 %ID/g
tissue uptake at 48 h (in vivo; [2]): 0.19 ± 0.03 %ID/g
tissue uptake at 24 h (in vivo; Tumor uptake): 1.1 ± 0.2 %ID/g
tissue uptake at 48 h (in vivo; Tumor uptake): 0.71 ± 0.03 %ID/g
